According to publication PMC6271219, “Antiprotozoal Activity of Achillea ptarmica (Asteraceae) and Its Main Alkamide Constituents” (Molecules, 2014):
Values after ≈ are worked out from the molar mass of the structure shown. Where two headings read alike, the source gives them in different places. Each block holds one molecule with its values, some of them ahead of it.

Assays:
[1] = system: rat skeletal myoblasts (L6 cell line); assay: Cytotoxicity against rat skeletal myoblasts (L6 cell line); format: cell-based
Protocol: (§1) The assays and the IC50 determinations were performed essentially as described previously.

[2] = system: Plasmodium falciparum NF54 strain; assay: In vitro antiplasmodial assay, P. falciparum NF54 strain; format: cell-based; settings: for IC50: Plasmodium falciparum; for SI Pf: ratio of cytotoxic (L6) over antiprotozoal IC50, Pf NF54 strain
Protocol: (§2) All fractions were analyzed by UHPLC/+ESI QTOF MSMS and representative samples chosen for re-evaluation of their antiprotozoal activity. At this stage, each of the chosen fractions was tested for percent growth inhibitory activity at two concentrations (see Table 2).
as §1

[3] = system: T. cruzi; assay: In vitro antiprotozoal assay against T. cruzi (Tcr); format: cell-based; settings: Trypanosoma cruzi
Protocol: as §2, §1

[4] = system: Leishmania donovani; assay: In vitro antiprotozoal assay against Leishmania donovani (Ldo); format: cell-based
Protocol: as §2, §1

[5] = system: Trypanosoma brucei rhodesiense; assay: In vitro antiprotozoal assay against T. brucei rhodesiense (Tbr); format: cell-based; settings: for SI Tbr: ratio of cytotoxic (L6) over antiprotozoal IC50
Protocol: as §2, §1

[6] = system: Plasmodium falciparum K1 strain; assay: In vitro antiplasmodial assay, P. falciparum K1 strain; format: cell-based; settings: K1, read-out: IC50 Pf (value in brackets)
Protocol: Tests for antiprotozoal activities were carried out using established standard protocols at the Swiss Tropical and Public Health Institute (Swiss TPH, Basel, Switzerland). The assays and the IC50 determinations were performed essentially as described previously.

[7] = system: K1 strain of Pf; design: method as in PMID 15234750; settings: cited from earlier work
[8] = system: K1 strain of Pf; design: method as in PMID 2236290; settings: cited from earlier work
[9] = L6, read-out: IC50 Tox. L6 (value in brackets)
[10] = NF54, NF54 strain, pure compounds, read-out: IC50 Pf (value in brackets) (converted)
[11] = in vitro, means of two independent determinations ± deviation from mean, read-out: IC50 Tcr
[12] = in vitro, pure compounds, read-out: IC50 Tcr (value in brackets) (converted)
[13] = in vitro, means of two independent determinations ± deviation from mean, read-out: IC50 Ldo
[14] = in vitro, pure compounds, read-out: IC50 Ldo (value in brackets) (converted)
[15] = cytotoxicity, L6 cell line, means of two independent determinations ± deviation from mean, read-out: IC50 Tox. L6
[16] = cytotoxicity, L6 cell line, pure compounds, read-out: IC50 Tox. L6 (value in brackets) (converted)
[17] = Trypanosoma brucei, RHODESIENSE, in vitro, means of two independent determinations ± deviation from mean, read-out: IC50 Tbr
[18] = Trypanosoma brucei, RHODESIENSE, in vitro, pure compounds, read-out: IC50 Tbr (value in brackets) (converted)
[19] = compared with A. ptarmica crude extract
[20] = NF54, read-out: IC50 Pf (value in brackets)

Compound: COc1cc([C@@H]2c3cc4c(cc3[C@H](O)[C@H]3COC(=O)[C@H]23)OCO4)cc(OC)c1OC [Podophyllotoxin, reference compound]
IC50 ([1]; L6, read-out: IC50 Tox. L6): 0.008 ± 0.001 µg/mL | IC50 [1, 9]: 0.019 µM

Compound: C/C=C\CC/C=C/C=C/C(=O)NCC(C)C [8,9-Z-Dehydropellitorine (2), (E,E,Z)-2,4,8-decatrienoic acid isobutylamide]
IC50 [2, 10]: 29.3 µM | SI Pf [2]: 2.55 | IC50 [3, 11]: 14.2 ± 2.5 µg/mL | IC50 [3, 12]: 64.3 µM | IC50 [4, 13]: 5.01 ± 0.12 µg/mL | IC50 [4, 14]: 22.7 µM | IC50 [1, 15]: 16.5 ± 0.2 µg/mL | IC50 [1, 16]: 74.7 µM | IC50 [5, 17]: 2 ± 0.06 µg/mL | IC50 [5, 18]: 9 µM | Anti-Tbr activity, fold lower in comparison with the crude extract [5, 19]: 3 fold | Selectivity index (Tbr), fold lower than that of the total extract ([5]; compared with A. ptarmica total extract): about 5 fold | IC50 ([5]; in vitro, pure compounds, read-out: IC50 Tbr (value in brackets) (converted)): 9.1 µM | SI Tbr [5]: 8.25

IC50 [2, 20]: 0.009 µM | IC50 [6]: 0.25 µM
Compound: CCN(CC)CCCC(C)Nc1ccnc2cc(Cl)ccc12 (centres unmarked) [Chloroquine, reference compound]

Compound: Nc1nc(N)nc(Nc2ccc([As]3SCC(CO)S3)cc2)n1 (centres unmarked) [Melarsoprol, reference compound]
IC50 ([5]; Trypanosoma brucei, RHODESIENSE, read-out: IC50 Tbr): 0.003 ± 0.001 µg/mL | IC50 ([5]; Trypanosoma brucei, RHODESIENSE, read-out: IC50 Tbr (value in brackets)): 0.008 µM

IC50 Pf ([2]; NF54 strain, means of two independent determinations ± deviation from mean): 3.3 µg/mL (≈ 14.8 µM) | IC50 ([2]; NF54, NF54 strain, means of two independent determinations ± deviation from mean, read-out: IC50 Pf): 3.26 µg/mL | IC50 [2, 10]: 14.6 µM | IC50 [3, 11]: 8.45 ± 1.08 µg/mL | IC50 [3, 12]: 37.9 µM | IC50 [4, 13]: 5.96 ± 0.16 µg/mL | IC50 [4, 14]: 26.7 µM | IC50 [5, 17]: 5.35 ± 0.54 µg/mL | IC50 [5, 18]: 24 µM
Compound: CCCCC/C=C/C=C/C(=O)NCC(C)C [Pellitorine (1), (E,E)-2,4-decadienoic acid isobutylamide]
Antiplasmodial activity, fold higher than that of the crude extract [2, 19]: about 2 fold | SI Pf [2]: 13.85 | Concentration up to which reported inactive against Pf [7]: > 20 µg/mL | IC50 [1, 15]: 45.5 ± 9.1 µg/mL | IC50 [1, 16]: 202 µM | SI Tbr [5]: 8.41

Compound: CCCC#CC#CCC/C=C/C=C/C(=O)NCC(C)C [Anacycline (6), (E,E)-2,4-tetradecadien-8,10-diynoic acid isobutylamide]
IC50 ([2]; NF54, read-out: IC50 Pf): 7.23 ± 0.4 µg/mL | IC50 [2, 20]: 26.7 µM | SI Pf [2]: 6.74 | IC50 ([3]; read-out: IC50 Tcr): 42 ± 4.5 µg/mL | IC50 ([3]; read-out: IC50 Tcr (value in brackets)): 155 µM | IC50 ([4]; read-out: IC50 Ldo): > 100 µg/mL | IC50 ([4]; read-out: IC50 Ldo (value in brackets)): > 369 µM | IC50 ([1]; L6, read-out: IC50 Tox. L6): 48.7 ± 1.1 µg/mL | IC50 [1, 9]: 18 µM | IC50 [5, 17]: 5.12 ± 0.95 µg/mL | IC50 [5, 18]: 18.9 µM | SI Tbr [5]: 9.5

Compound: CCCCCC=CC=CC(=O)NCC(C)C [N-isobutyldeca-2,4-diene]
IC50 against Pf [8]: 5.4 µg/mL (≈ 24.2 µM)

Compound: O=C(Cn1ccnc1[N+](=O)[O-])NCc1ccccc1 [Benznidazole, reference compound]
IC50 [3, 11]: 0.439 ± 0.094 µg/mL | IC50 [3, 12]: 1.69 µM
